Results from patent publication US20100028459A1, “NUTRITIONAL SUPPLEMENT COMPOSITION FOR TREATMENT OF OCULAR DISEASES” (priority 2006, published 2010).

Key:
[1] = lutein supplementation in human; cited from earlier work
[2] = lutein supplementation and AMD incidence (our studies); assay type: in vivo; conditions: supplementation of 10 mg/day
Experimental: Therefore, the subject composition preferably provides preferably 10 mg of pure lutein per composition, e.g. per capsule.

[3] = AMD patients; cited from earlier work

Compound | macular pigment [1] | AMD incidence [2] | visual field loss [3]
CC1=C[C@H](O)CC(C)(C)[C@H]1/C=C/C(C)=C/C=C/C(C)=C/C=C/C=C(C)/C=C/C=C(C)/C=C/C1=C(C)C[C@@H](O)CC1(C)C [Lutein] | increased macular pigment | decreases the AMD incidence | –
Zinc | – | – | slows visual field loss
